In PMC5681660, “Reduced hepatitis B and D viral entry using clinically applied drugs as novel inhibitors of the bile acid transporter NTCP” (Scientific Reports, 2017):
Entries after “also recorded” stand apart in the source; their conditions may differ. Read-outs that look alike come from different tables or passages of the source.

Assays:
mouse NTCP = molecular target: T1, mouse NTCP (Mus musculus, UniProt O08705); experiment: Taurocholate uptake in U2OS cells transiently transfected with mouse NTCP; assay type: cell-based; settings: at the calculated IC50 value for hNTCP
T1 construct: expressed in transfected cells; host or cells: U2OS (transient transfection, PEI)
T1 sequence (O08705 1-362): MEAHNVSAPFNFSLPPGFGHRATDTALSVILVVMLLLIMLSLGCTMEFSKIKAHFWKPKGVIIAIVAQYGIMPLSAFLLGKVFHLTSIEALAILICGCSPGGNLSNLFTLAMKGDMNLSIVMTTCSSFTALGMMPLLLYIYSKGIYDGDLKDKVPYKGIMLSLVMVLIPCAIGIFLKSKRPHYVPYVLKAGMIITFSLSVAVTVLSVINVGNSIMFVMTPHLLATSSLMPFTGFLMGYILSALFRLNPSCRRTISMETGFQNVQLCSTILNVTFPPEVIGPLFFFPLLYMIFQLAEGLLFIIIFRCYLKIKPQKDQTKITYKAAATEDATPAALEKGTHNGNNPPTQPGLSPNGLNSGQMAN
Protocol: (§1) U2OS and MDCK cells were grown in Dulbecco’s modified Eagle’s medium (DMEM, Sigma-Aldrich), supplemented with 10% FCS (Gibco), 1% L-glutamine (Lonza), and 1% penicillin/streptomycin (Lonza). […] Transient transfection of U2OS cells with mouse NTCP (mNTCP) was done with PEI reagent (Brunschwig, Basel, Switzerland). Shortly, U2OS cells were seeded one day prior to transfection in 24-well plates. On the day of transfection, 0.5 µg DNA was mixed with 100 µl unsupplemented DMEM and 3 µg/µl PEI. After 10–15 minute incubation at RT, 20 µl of the transfection mix was added to each 24-well. Transfected cells were used in further experiments 48–72 hours later. Cell lines were passaged twice a week at a confluence of 80%, and incubated in a humidified atmosphere of 37 °C + 5% CO2.
(§2) For MDCK or MDCK-hASBT cells 70.000 cells/well were plated in 24-well plates, followed by 24 hours 10 mM sodium butyrate (Sigma-Aldrich) stimulation the next day. Cells were used in the inhibition studies 24 hours (U2OS cell lines) or 48 hours (MDCK cell lines) later. Inhibition studies with mNTCP transiently transfected cells were conducted 48–72 hours after transfection.
(§3) Medium was aspirated from the wells and cells were washed once with 250 µL uptake buffer. Subsequently, cells were pre-incubated with drug in 150 µL uptake buffer for 10 minutes at 37 °C. Taurocholate uptake was initiated by addition of 100 µL uptake buffer containing taurocholate (final concentration 10 µM TC spiked with tritium-labeled TC) and cells were incubated for 2 minutes at 37 °C. Subsequently, cells were washed 4 times with ice-cold PBS and lysed with 0.05% SDS in water. Radioactivity was measured by liquid scintillation counting.

human NTCP [1] = molecular target: T2, human NTCP (Homo sapiens, UniProt Q14973); experiment: Taurocholate uptake inhibition studies in U2OS-HA-hNTCP cells; assay type: cell-based; parameters: HA; expressed in transfected cells; settings: for concentration at which NTCP was inhibited in repeated measurements of TC-uptake and Myrcludex B binding: both TC uptake and Myrcludex B binding; for Taurocholate uptake into U2OS-HA-hNTCP cells (in words): increasing drug concentrations
T2 sequence (Q14973 1-349): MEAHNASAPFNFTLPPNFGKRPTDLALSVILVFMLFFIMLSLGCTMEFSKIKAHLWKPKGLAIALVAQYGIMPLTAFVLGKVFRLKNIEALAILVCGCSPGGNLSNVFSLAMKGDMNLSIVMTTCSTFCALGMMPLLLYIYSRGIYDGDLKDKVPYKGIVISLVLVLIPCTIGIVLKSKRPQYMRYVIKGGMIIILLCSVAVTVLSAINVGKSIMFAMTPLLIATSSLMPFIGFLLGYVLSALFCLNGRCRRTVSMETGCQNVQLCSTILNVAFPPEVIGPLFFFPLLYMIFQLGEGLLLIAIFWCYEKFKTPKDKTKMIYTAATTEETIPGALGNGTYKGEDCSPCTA
Protocol: as §2, §3

HDV = HDV infection of HepaRG cells (HDAg immunofluorescence); assay type: cell-based, hepatitis delta virus; settings: HDAg positive cells, day 5; concentration-dependent
human NTCP [2] = molecular target: T2, human NTCP; experiment: Myrcludex B-FITC binding by confocal microscopy in U2OS-HA-hNTCP cells; parameters: HA; expressed in transfected cells; settings: for Myrcludex B-FITC fluorescence / binding to U2OS-HA-hNTCP cells (in words): co-administration with increasing amounts of drug; for ≥50% loss of Myrcludex B binding to hNTCP (concentration): confocal microscopy, 0.2 µM Myrcludex B-FITC, drug 1, 10, 100 µM, concentration at which binding inhibited minimally 50%
Protocol: After 24 hours, medium was aspirated and cells were washed once with 300 µl Leibovitz’s L-15 Medium (Invitrogen). A 30 minute incubation period followed in which all cells were incubated with 0.2 µM Myrcludex B-FITC with or without drug (1, 10, 100 µM) and Hoechst (1/1000) in 300 µL Leibovitz’s L-15 Medium. Cells were washed twice with Leibovitz’s L-15 Medium and subsequently 400 µL Leibovitz’s L-15 Medium was added. Live cell fluorescent imaging was performed using a Leica SP8X-SMD confocal microscope with fully enclosed incubation at 37 °C. A 63x oil objective was used and images were captured while the cells were consecutively excited at 490 nm (FITC) 350 nm (Hoechst). ImageJ software (National Insititutes of Health, Bethesda, MD) was employed for data analysis.

human NTCP [3] = molecular target: T2, human NTCP; experiment: Screening taurocholate uptake assay (96-well, [14C]taurocholate, 10 µM drug); settings: for Ranking score: ranking over the functional and the binding screening assay; for B-score functional assay: screening taurocholate uptake, 10 µM drug
HBV [4] = settings: for HBV infection in HepaRG cells (in words): HBeAg, HBsAg, HBcAg, concentration-dependent; for number of HBcAg positive stained cells: HepaRG cells, day 10 post HBV infection, 50 µM
U2OS-HA-hNTCP cells = settings: 2 hours
U2OS cells = experiment: WST-1 cytotoxicity, wildtype U2OS cells; settings: U2OS cells, 2 hours
human ASBT = molecular target: T3, human ASBT (Homo sapiens, UniProt Q12908); experiment: Taurocholate uptake in MDCK-hASBT cells; assay type: cell-based; settings: compared with NTCP
T3 construct: expressed in transfected cells; gift of Paul Dawson; induced with sodium butyrate
T3 sequence (Q12908 1-348): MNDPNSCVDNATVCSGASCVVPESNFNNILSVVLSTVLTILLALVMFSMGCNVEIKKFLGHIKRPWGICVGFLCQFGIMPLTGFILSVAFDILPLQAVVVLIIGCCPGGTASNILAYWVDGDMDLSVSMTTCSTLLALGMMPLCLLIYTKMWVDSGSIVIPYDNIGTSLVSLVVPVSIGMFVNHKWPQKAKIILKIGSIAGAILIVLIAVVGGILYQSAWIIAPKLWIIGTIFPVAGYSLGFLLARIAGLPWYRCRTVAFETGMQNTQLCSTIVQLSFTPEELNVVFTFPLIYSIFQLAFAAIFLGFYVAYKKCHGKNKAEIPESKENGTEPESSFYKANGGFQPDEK
Protocol: as §1, §2, §3

in vitro = settings: human, U2OS-HA-hNTCP cells
[5] = WST-1 cytotoxicity, wildtype U2OS cells; settings: human
HBV [6] = settings: primary human hepatocytes, cited from earlier work
human NTCP [7] = molecular target: T2, human NTCP; experiment: Sodium dependent tauro-ursodeoxycholic acid uptake into U2OS-HA-hNTCP cells; assay type: cell-based; parameters: HA; expressed in transfected cells
Protocol: Figure 4 Myrcludex B inhibits uptake of tauro-ursodeoxycholic acid. Sodium dependent tauro-ursodeoxycholic acid uptake into U2OS-HA-hNTCP cells was reduced in the presence of Myrcludex B. N = 6 wells/condition, data are depicted as mean ± SD.
Buffers were set to pH 7.4, at room temperature. After washing, cells were pre-incubated for 10 minutes with drugs in 50 µL uptake buffer. […] After incubation, buffer was removed and cells were washed 2x with ice-cold PBS. Cells were lysed for a minimum of 30 minutes in 30 µL/well 0.05% SDS in water. When lysis was complete, 120 µL MicroScint™-20 (PerkinElmer) was added to the wells and radioactivity was measured by liquid scintillation counting.

[8] = test system: HDV RNA and HBV DNA serum levels; settings: chronic hepatitis delta patients, 24 weeks; cited from earlier work
HBV [9] = experiment: HBV infection of primary human hepatocytes (literature); assay type: cell-based, hepatitis B virus
[10] = U2OS-HA-hNTCP cells, concentrations 1 nM to 10 mM, read-out: IC50 for hNTCP-mediated TC uptake
[11] = HepaRG cells infected with HBV, supernatant day 7 to 10

| Compound | inhibition of mouse Ntcp-mediated taurocholate uptake compared with human NTCP (mouse NTCP) | concentration at which NTCP was inhibited in repeated measurements of TC-uptake and Myrcludex B binding (human NTCP [1]; U2OS-HA-hNTCP cells) | IC50 (human NTCP [1]; [10]) | Taurocholate uptake into U2OS-HA-hNTCP cells (in words) (human NTCP [1]) | HDV infection in HepaRG cells (in words) (HDV) | Myrcludex B-FITC fluorescence / binding to U2OS-HA-hNTCP cells (in words) (human NTCP [2]) | ≥50% loss of Myrcludex B binding to hNTCP (concentration) (human NTCP [2]) | Ranking score (human NTCP [3]) | B-score functional assay (human NTCP [3]) | HBV infection in HepaRG cells (in words) (HBV [4]) | concentration effective in reducing HBeAg and HBsAg production (HBV [4]; [11]) | number of HBcAg positive stained cells (HBV [4]) | inhibition of ASBT-mediated taurocholate uptake (human ASBT) | viability at 2 h, 1 µM (in vitro) | viability at 2 h, 10 µM (in vitro) | viability at 2 h, 100 µM (in vitro) | also measured |
| --- | --- | --- | --- | --- | --- | --- | --- | --- | --- | --- | --- | --- | --- | --- | --- | --- | --- |
| COc1cc(-c2ccc(N=Nc3ccc4c(S(=O)(=O)[O-])cc(S(=O)(=O)[O-])c(N)c4c3O)c(OC)c2)ccc1N=Nc1ccc2c(S(=O)(=O)[O-])cc(S(=O)(=O)[O-])c(N)c2c1O.[Na+].[Na+].[Na+].[Na+] [Chicago Sky Blue 6B] | more capable of inhibiting mouse Ntcp; also recorded: more potent in inhibiting mouse NTCP | ≤ 10 µM | 7.1 µM | reduced | reduced HBV/HDV infection | reduced | ≥1 µM | 17.4642 | -3.126 | reduced HBV/HDV infection | 17 µM | severely reduced | inhibited ASBT to a similar extent as NTCP; also recorded: inhibit ASBT in a concentration-dependent fashion | – | – | – | cell viability by WST-1 (U2OS-HA-hNTCP cells; 1 µM): 87.8 ± 7.2%; cell viability by WST-1 (U2OS-HA-hNTCP cells; 10 µM): 95.8 ± 5.9%; cell viability by WST-1 (U2OS-HA-hNTCP cells; 100 µM): 110.9 ± 9.4%; cell viability by WST-1 (U2OS cells; 1 µM): 91.0 ± 9.3%; cell viability by WST-1 (U2OS cells; 10 µM): 93.9 ± 5.4%; cell viability by WST-1 (U2OS cells; 100 µM): 108.7 ± 5.6% |
| CN(CCOc1ccc(CC2SC(=O)NC2=O)cc1)c1ccccn1 (stereo not drawn) [Rosiglitazone] | more capable of inhibiting mouse Ntcp; also recorded: more potent in inhibiting mouse NTCP | – | – | – | reduced HBV/HDV infection; also recorded: reduce | – | – | – | – | reduced HBV/HDV infection; also recorded: reduce | – | severely reduced | inhibited ASBT less effectively and at higher concentrations than observed for NTCP; also recorded: inhibit ASBT in a concentration-dependent fashion | 111 ± 4.4% | 106 ± 4.5% | 103 ± 6% | IC50 (human NTCP [1]): 5.1 µM; concentration effective in reducing HBsAg (HBV [4]; [11]): ≥ 50 µM; viability at 2 h, 1 µM ([5]; wildtype U2OS cells): 104 ± 7.2%; viability at 2 h, 10 µM ([5]; wildtype U2OS cells): 107 ± 3.4%; viability at 2 h, 100 µM ([5]; wildtype U2OS cells): 104 ± 2.5% |
| COc1cc(C(=O)NS(=O)(=O)c2ccccc2C)ccc1Cc1cn(C)c2ccc(NC(=O)OC3CCCC3)cc12 [Zafirlukast] | inhibited similarly as human NTCP | ≤ 10 µM | 6.5 µM | reduced | reduced HBV/HDV infection; also recorded: reduce | reduced Myrcludex B-FITC fluorescence | ≥1 µM | 4.472 | -7.741 | reduced HBV/HDV infection; also recorded: reduce | 17 µM | severely reduced | inhibited ASBT less effectively and at higher concentrations than observed for NTCP; also recorded: inhibit ASBT in a concentration-dependent fashion | 94.7 ± 12.7% | 87.1 ± 12.3% | 77.7 ± 8% | decreased Myrcludex B binding (human NTCP [2]; at 10 µM): more than 50%; viability at 1 µM [5]: 87.7 ± 4.8%; viability at 10 µM [5]: 94.1 ± 2.7%; viability at 100 µM [5]: 73 ± 5.8% |
| Myrcludex B | – | – | – | – | – | – | – | – | – | – | – | – | – | – | – | – | IC50 (HBV [6]; read-out: concentration inhibiting HBV infection, HBeAg): 83 pM; IC50 (HBV [6]; read-out: concentration inhibiting HBV infection, HBsAg): 669 pM; sodium-dependent uptake of tauro-ursodeoxycholic acid (human NTCP [7]): largely inhibited; also recorded: reduced; HDV RNA and HBV DNA serum levels [8]: Largely reduced; fold lower concentration for blocking HBV infection than IC50 for bile acid transport (HBV [9]): at least 50 fold |
